#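 Compound exposure: 48 hours, 5 concentrations, 96-well plates. GI50 marks 50% less growth.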 Activity calls are given as the source filed them. Cut-off read from the data, not from the text of the source: active = GI50 up to about 1.1 µM and inactive = higher.
# How the values were obtained:
# Experiment in all cases: DTP human tumour cell line panel, 48 h
# 786-0 = tested on: 786-0
# A498 = tested on: A498
# A549 = tested on: A549
# ACHN = tested on: ACHN
# BT-549 = tested on: BT-549
# CAKI-1 = tested on: CAKI-1
# CCRF-CEM = tested on: CCRF-CEM
# COLO 205 = tested on: COLO 205
# DU-145 = tested on: DU-145
# EKVX = tested on: EKVX
# HCC 2998 = tested on: HCC 2998
# HCT-116 = tested on: HCT-116
# HCT-15 = tested on: HCT-15
# HL-60 = tested on: HL-60
# HOP-62 = tested on: HOP-62
# HOP-92 = tested on: HOP-92
# HT-29 = tested on: HT-29
# Hs-578T = tested on: Hs-578T
# IGROV-1 = tested on: IGROV-1
# K562 = tested on: K562
# KM12 = tested on: KM12
# LOX IMVI = tested on: LOX IMVI
# M14 = tested on: M14
# MCF7 = tested on: MCF7
# MDA-MB-231 = tested on: MDA-MB-231
# MDA-MB-435 = tested on: MDA-MB-435
# MDA-N = tested on: MDA-N
# MOLT-4 = tested on: MOLT-4
# Malme-3M = tested on: Malme-3M
# NCI-H226 = tested on: NCI-H226
# NCI-H23 = tested on: NCI-H23
# NCI-H460 = tested on: NCI-H460
# NCI-H522 = tested on: NCI-H522
# NCI/ADR-RES = tested on: NCI/ADR-RES
# OVCAR-3 = tested on: OVCAR-3
# OVCAR-4 = tested on: OVCAR-4
# OVCAR-5 = tested on: OVCAR-5
# OVCAR-8 = tested on: OVCAR-8
# PC-3 = tested on: PC-3
# RPMI-8226 = tested on: RPMI-8226
# RXF 393 = tested on: RXF 393
# SF-268 = tested on: SF-268
# SF-295 = tested on: SF-295
# SF-539 = tested on: SF-539
# SK-MEL-28 = tested on: SK-MEL-28
# SK-MEL-2 = tested on: SK-MEL-2
# SK-MEL-5 = tested on: SK-MEL-5
# SK-OV-3 = tested on: SK-OV-3
# SN12C = tested on: SN12C
# SNB-19 = tested on: SNB-19
# SNB-75 = tested on: SNB-75
# SW-620 = tested on: SW-620
# T47D = tested on: T47D
# TK-10 = tested on: TK-10
# U-251 = tested on: U-251
# UACC-257 = tested on: UACC-257
# UACC-62 = tested on: UACC-62
# UO-31 = tested on: UO-31
# SR = tested on: SR
smiles,measurement,setting,value
COc1ccccc1C1(c2c(OC)c(=O)c2=O)SCCCS1,GI50,786-0,> 100 µM (inactive)
same,GI50,A498,49 µM (inactive)
same,GI50,A549,74.8 µM (inactive)
same,GI50,ACHN,> 100 µM (inactive)
same,GI50,BT-549,31.6 µM (inactive)
same,GI50,CAKI-1,> 100 µM (inactive)
same,GI50,CCRF-CEM,82.6 µM (inactive)
same,GI50,COLO 205,> 100 µM (inactive)
same,GI50,DU-145,> 100 µM (inactive)
same,GI50,EKVX,75.2 µM (inactive)
same,GI50,HCC 2998,> 100 µM (inactive)
same,GI50,HCT-116,> 100 µM (inactive)
same,GI50,HCT-15,61 µM
same,GI50,HL-60,> 100 µM (inactive)
same,GI50,HOP-62,> 100 µM (inactive)
same,GI50,HOP-92,19.2 µM (inactive)
same,GI50,HT-29,> 100 µM (inactive)
same,GI50,Hs-578T,35 µM (inactive)
same,GI50,IGROV-1,47.2 µM (inactive)
same,GI50,K562,> 100 µM (inactive)
same,GI50,KM12,> 100 µM (inactive)
same,GI50,LOX IMVI,60.3 µM (inactive)
same,GI50,M14,> 100 µM (inactive)
same,GI50,MCF7,> 100 µM (inactive)
same,GI50,MDA-MB-231,83.2 µM (inactive)
same,GI50,MDA-MB-435,> 100 µM (inactive)
same,GI50,MDA-N,> 100 µM (inactive)
same,GI50,MOLT-4,72.4 µM (inactive)
same,GI50,Malme-3M,62.5 µM (inactive)
same,GI50,NCI-H226,85.7 µM (inactive)
same,GI50,NCI-H23,48.3 µM (inactive)
same,GI50,NCI-H460,> 100 µM (inactive)
same,GI50,NCI-H522,27.4 µM (inactive)
same,GI50,NCI/ADR-RES,73.6 µM (inactive)
same,GI50,OVCAR-3,86.7 µM (inactive)
same,GI50,OVCAR-4,> 100 µM (inactive)
same,GI50,OVCAR-5,34.4 µM (inactive)
same,GI50,OVCAR-8,67.1 µM (inactive)
same,GI50,PC-3,> 100 µM (inactive)
same,GI50,RPMI-8226,32 µM (inactive)
same,GI50,RXF 393,44.5 µM (inactive)
same,GI50,SF-268,> 100 µM (inactive)
same,GI50,SF-295,67 µM (inactive)
same,GI50,SF-539,> 100 µM (inactive)
same,GI50,SK-MEL-28,> 100 µM (inactive)
same,GI50,SK-MEL-2,> 100 µM (inactive)
same,GI50,SK-MEL-5,> 100 µM (inactive)
same,GI50,SK-OV-3,> 100 µM (inactive)
same,GI50,SN12C,36.6 µM (inactive)
same,GI50,SNB-19,74 µM (inactive)
same,GI50,SNB-75,71.8 µM (inactive)
same,GI50,SW-620,> 100 µM (inactive)
same,GI50,T47D,73.8 µM (inactive)
same,GI50,TK-10,> 100 µM (inactive)
same,GI50,U-251,> 100 µM (inactive)
same,GI50,UACC-257,85.1 µM (inactive)
same,GI50,UACC-62,> 100 µM (inactive)
same,GI50,UO-31,> 100 µM (inactive)
N#C/C(N)=C(C#N)/N=C/NCc1ccccc1,GI50,786-0,> 100 µM (inactive)
same,GI50,A498,> 100 µM (inactive)
same,GI50,A549,> 100 µM (inactive)
same,GI50,ACHN,> 100 µM (inactive)
same,GI50,BT-549,> 100 µM (inactive)
same,GI50,CAKI-1,> 100 µM (inactive)
same,GI50,CCRF-CEM,> 100 µM (inactive)
same,GI50,COLO 205,> 100 µM (inactive)
same,GI50,DU-145,> 100 µM (inactive)
same,GI50,EKVX,> 100 µM (inactive)
same,GI50,HCC 2998,> 100 µM (inactive)
same,GI50,HCT-116,> 100 µM (inactive)
same,GI50,HCT-15,> 100 µM
same,GI50,HL-60,> 100 µM (inactive)
same,GI50,HOP-62,> 100 µM (inactive)
same,GI50,HT-29,> 100 µM (inactive)
same,GI50,Hs-578T,> 100 µM (inactive)
same,GI50,IGROV-1,> 100 µM (inactive)
same,GI50,K562,> 100 µM (inactive)
same,GI50,KM12,> 100 µM (inactive)
same,GI50,LOX IMVI,> 100 µM (inactive)
same,GI50,M14,> 100 µM (inactive)
same,GI50,MCF7,> 100 µM (inactive)
same,GI50,MDA-MB-231,> 100 µM (inactive)
same,GI50,MDA-MB-435,> 100 µM (inactive)
same,GI50,MDA-N,> 100 µM (inactive)
same,GI50,MOLT-4,> 100 µM (inactive)
same,GI50,Malme-3M,> 100 µM (inactive)
same,GI50,NCI-H226,> 100 µM (inactive)
same,GI50,NCI-H23,> 100 µM (inactive)
same,GI50,NCI-H460,> 100 µM (inactive)
same,GI50,NCI-H522,> 100 µM (inactive)
same,GI50,NCI/ADR-RES,50.1 µM (inactive)
same,GI50,OVCAR-3,> 100 µM (inactive)
same,GI50,OVCAR-4,> 100 µM (inactive)
same,GI50,OVCAR-5,> 100 µM (inactive)
same,GI50,OVCAR-8,> 100 µM (inactive)
same,GI50,PC-3,> 100 µM (inactive)
same,GI50,RPMI-8226,> 100 µM (inactive)
same,GI50,SF-268,> 100 µM (inactive)
same,GI50,SF-295,> 100 µM (inactive)
same,GI50,SF-539,> 100 µM (inactive)
same,GI50,SK-MEL-28,> 100 µM (inactive)
same,GI50,SK-MEL-2,38.4 µM (inactive)
same,GI50,SK-MEL-5,> 100 µM (inactive)
same,GI50,SK-OV-3,> 100 µM (inactive)
same,GI50,SN12C,> 100 µM (inactive)
same,GI50,SNB-19,> 100 µM (inactive)
same,GI50,SNB-75,> 100 µM (inactive)
same,GI50,SR,> 100 µM (inactive)
same,GI50,SW-620,> 100 µM (inactive)
same,GI50,T47D,75.9 µM (inactive)
same,GI50,TK-10,> 100 µM (inactive)
same,GI50,U-251,> 100 µM (inactive)
same,GI50,UACC-257,> 100 µM (inactive)
same,GI50,UACC-62,95.5 µM (inactive)
same,GI50,UO-31,> 100 µM (inactive)

# From ChEMBL document CHEMBL1201862, “PubChem BioAssay data set” (2004)
